Laboratory results published in patent US20070117861A1, “Treatment or prevention of cardiovascular and respiratory disorders with novel substituted cyclic-amp specific phosphodiesterase inhibitors” (University of South Carolina, priority 2003, published 2007).

How the values were obtained:
PDE5 = PDE5 (Homo sapiens, UniProt O76074); conditions: ratio of cited IC50 values
Experimental: PDE inhibition is then determined by the presence or absence of substrate degradation products. […] The relative ability of an inhibitory compound to slow or prevent the degradation of tritiated cyclic nucleotides is one test that is indicative of how well the compound in question selects one or more of each isoform to inhibit.

PDE-4 = tested on: T1, PDE-4; conditions: reported in Hatzelmann et al. 2001; read-out: IC50 for roflumilast activity on PDE-4; cited from earlier work
T1 construct: other: reported in Hatzelmann et al. 2001

PDE1 = conditions: reported in Hatzelmann et al. 2001; read-out: IC50 for roflumilast activity on PDE1; cited from earlier work
solubility = format: physicochemical
[1] = onset of therapeutic effect after administration; format: in vivo
[2] = blood pressure and heart rate in anesthetized rats after oral gavage; format: in vivo; conditions: anesthetized female rat; for Mean Blood Pressure: saline control 186; for Heart Rate: saline control 364
Experimental: This example illustrates the effect that MS23 has on blood pressure reduction through an in vivo experiment. Specifically, this example illustrates the effect of an intravenous bolus injection of MS23 on blood pressure. Female Sprague-Dawley rats weighing 200-225 g were anesthetized with pentobarbital (30 mg/kg body weight (bw), i.p.). The animals were positioned supinely on a heat plate that was controlled by an automatic temperature controller system (TC-324B, Warner Instrument Corp.) to maintain its body temperature constant (36° ±0.5° C.) during the experiment. The trachea, right carotid artery, and left femoral vein were exposed. The trachea was cannulated and the animal was breathed with air through a respirator at a rate of 65-70/min and an inspiration pressure of approximately 10 cm H2O. PE catheters were implanted into the carotid artery and femoral vein, respectively. The animal was heparinized by i.v. injection of approximately 300 units of heparin dissolved in 0.3 ml of 0.9% saline. Arterial pressure was recorded from the carotid artery catheter connected to a physiological pressure transducer (SP 844, Capto Company, Norway) that was coupled to a bridge amplifier (PowerLab, ADInstruments). The data was digitized through a 16 SP interface and acquire on-line with Chart 4.0 software (PowerLab, ADInstruments) and stored to a personal computer.
MS23 was administered to two female rats via oral gavage at a dose of 26 and 80 mg/kg.bw, respectively. The agent was dissolved in 0.9% saline in a volume of 0.5 ml. The same volume of saline alone was administered to two control animals. After 15 minutes, the animal was anesthetized with pentobarbital (30 mg/kg.bw, i.p.) and same surgery was performed except that the femoral vein was not exposed and there was no i.v. administration of the test agent. The carotid blood pressure and heart rate were monitored and recorded for 60 minutes using the same method described above. The initial recording was made within 45 to 65 minutes after performing oral gavage. The results are reported in the following Table 1 (the MBP and HR were measured within 30 minutes after the surgery).

[3] = blood pressure in anesthetized dogs after intravenous bolus injection; format: in vivo; conditions: for Left Ventricular End Diastolic Pressure: control 8.7; for Blood Pressure Min: control 46.6; for Blood Pressure Mean: control 67.2; for Left Ventricular Systolic Pressure: control 78.5; for Blood Pressure Max: control 99.8; for Heart Rate: control 119.8, in bpm (unit assumed)
Experimental: This example illustrates the effect that MS23 has on blood pressure reduction through an in vivo experiment in dogs. An intravenous bolus injection of MS23 was administered to anesthetized dogs at a dose of 0.25 mg/kg.bw. […] Higher doses of MS23 produced a greater decrease in blood pressure without affecting heart rate and left ventricular end diastolic pressure.

[4] = tested on: guinea pig ventricular myocytes; test: action potentials, nystatin-perforated whole-cell patch-clamp, ventricular myocytes; format: cell-based
Experimental: (§1) The effects of a novel synthesized cAMP specific phosphodiesterase inhibitor MS23 on action potential parameters were examined and compared with those of milrinone and rolipram in isolated guinea-pig myocytes. Action potentials (AP) were recorded under nystatin-perforated whole-cell patch-clamp mode at a temperature of 35±0.5° C. […] In comparison, rolipram (30 μM) shortened APD90 from 318.3±8.9 to 274.6±9.8 msec (P<0.05, n=3) in ventricular cells. […] In contrast, milrinone (10 μM) elongated ventricular APD90 from 287.9±10.3 msec to 327.8±17.4 msec (P<0.05, n=4) and produced a significant delay of phase 1 and plateau phase, but acceleration of phase 3 repolarization (APD90 shortened from 153.9±12.1 to 135.5±12.3 msec, P<0.05, n=4) in atrial cells.
(§2) Single myocytes were isolated by enzymatic digestion of guinea pig hearts. The animal was anesthetized by I.P. injection of pentobarbital sodium (50 mg/kg) and the heart was excised and retrogradely perfused with oxygenated Tyrode solution containing (in […]): 140 NaCl, 5.4 KCl, 1.5 MgCl2, 1.8 CaCl2, 0.33 NaH2PO4, 5.5 Glucose, 19 Hepes (pH 7.4 with NaOH at 36.5° C.). The enzymatic digestion was carried out with Ca^2+-free Tyrode solution by adding 0.4 mg/ml of collagenase type II (306 units/mg) and 1.6 mg/ml Bovine Serum Albumin V.
(§3) Transmembrane potentials were recorded under nystatin-perforted whole-cell current-clamp mode at 36.5° C. when the cells were bathed in Tyrode solution. The finished pipette had resistance of 4-7 MΩ when filled with a perforate solution containing (in mM): 140 KCl, 2 MCl2, 0.5 CaCl2, 10 Glucose, 10 Hepes (pH 7.2 with KOH), and 8.64 nM nystatin. The correction of junction potential was carried out off-line. The data acquisition was performed with an Axonpatch-200B amplifier/Digidata 1322A/Clampex 8.2 system (Axon Instrument, Inc., USA). Action potential was evoked by consecutive 10 msec rectangular current pulses at an interval of 2 seconds. APD was measured at 90% of repolarization (APD^90). The cell was held at a −40 mV membrane potential to inactivate the sodium channels. L-type calcium current was elicited by a step pulse from −40 mV to 0 mV with a duration of 300 msec.

[5] = tested on: guinea pig atrial myocytes; test: action potentials, nystatin-perforated whole-cell patch-clamp, atrial myocytes; format: cell-based
Experimental: as §1, §2, §3

[6] = tested on: high K+ contracted porcine kidney main artery; test: tension assay, high K+ contracted porcine kidney vessel rings; conditions: tension assay trace, FIG. 5
Experimental: The trachea, main bronchi and vessel rings (2-3 mm in width) of Sprague-Dawley rats, Harley Guinea Pigs and porchine were used to carry out the tension assay. The tissue rings were bathed in 3.5 ml or 30 ml tissue chamber and aired with 95% O2/5% CO2 at 37° C. The tension was measured using a tension transducer linked to a PowerLab system (ADInstruments, USA). The basal tension was set to 0.7-1.0 g step by step with a 0.1-0.2 g increment. After the base tension reached steady-state in control K-H solution, the rings were contracted for 5-10 minutes by a 70 mM high K^+ K-H solution and relaxed by switching back to normal K-H solution. The alternation between 70 mM K^+ K-H and normal K-H was repeated two more times to equilibrate the tissue before the experiment.

For `O=C(Nc1c(Cl)cncc1Cl)c1ccc(OC(F)F)c(OCC2CC2)c1` [roflumilast], the “selectivity for PDE-4 as compared with PDE5 (PDE5 IC50/PDE-4 IC50)” value (PDE5) is listed as “at least 10,000”, the IC50 (PDE-4) is listed as 0.8 nM and the IC50 (PDE1) is listed as > 10000 nM.

With `CCCN(CC)C(C)C(=O)Nc1[nH]c(CCSC)c(C)c1C(N)=O` (stereo not shown) [MS23] the “solubility in physiological saline” value (solubility) was “soluble”, the “onset of therapeutic effect (response occurs)” value ([1]; after intraperitoneal administration) was < 3 min and the “onset of therapeutic effect (response occurs)” value ([1]; after oral gavage) was ≤ 30 min. For the same molecule, the “Mean Blood Pressure” value ([2]; oral gavage 26 mg/kg·bw) was 156 mm Hg, the “Heart Rate” value ([2]; oral gavage 26 mg/kg·bw) was 384 beat/min and the “Mean Blood Pressure” value ([2]; oral gavage 80 mg/kg·bw) was 126 mm Hg. The “Heart Rate” value ([2]; oral gavage 80 mg/kg·bw) was 300 beat/min, the “Left Ventricular End Diastolic Pressure” value ([3]; Bolus 1 mg/kg·bw) was 9.0 and the “Blood Pressure Min” value ([3]; Bolus 1 mg/kg·bw) was 39.8. The “Blood Pressure Mean” value ([3]; Bolus 1 mg/kg·bw) was 58.4, the “Left Ventricular Systolic Pressure” value ([3]; Bolus 1 mg/kg·bw) was 71.8 and the Blood Pressure Max ([3]; Bolus 1 mg/kg·bw) was 90.5 mmHg. The “Heart Rate” value ([3]; Bolus 1 mg/kg·bw) was 118.2, the “Left Ventricular End Diastolic Pressure” value ([3]; Bolus 2 mg/kg·bw) was 9.2 and the “Blood Pressure Min” value ([3]; Bolus 2 mg/kg·bw) was 33.7. The “Blood Pressure Mean” value ([3]; Bolus 2 mg/kg·bw) was 48.0, the “Left Ventricular Systolic Pressure” value ([3]; Bolus 2 mg/kg·bw) was 63.1 and the Blood Pressure Max ([3]; Bolus 2 mg/kg·bw) was 76.8 mmHg. For the same molecule, the “Heart Rate” value ([3]; Bolus 2 mg/kg·bw) was 109.7, the “reduction in blood pressure” value ([3]; intravenous bolus 0.25 mg/kg.bw) was 4 mmHg and the “prolongation of ventricular APD” value ([4]; from 1 to 100 μM) was “did not prolong”. The “APD90 (action potential duration at 90% of repolarization)” value ([4]; ventricular cells, 30 μM, before drug 304.9±24.0 msec, P<0.05, n=8) was 254.9 ± 28.4 ms, the “effect on APD” value ([5]; atrial cells, 30 μM) was “no effect” and the “prolongation of atrial APD” value ([5]; from 1 to 100 μM) was “did not prolong”.

For `NC[C@H](O)c1ccc(O)c(O)c1` [Norepinephrine], the “effect on tension of high K+ contracted porcine kidney main artery” value [6] was “contracted”.

For `CCN(CC)CC(=O)Nc1c(C)cccc1C` [Lidocaine], the “effect on tension of high K+ contracted porcine kidney main artery” value [6] was “did not relax”.

For `Cc1[nH]c(=O)c(C#N)cc1-c1ccncc1` [milrinone], the “effect on APD90” value ([4]; ventricular cells, 10 μM, after treatment with either rolipram or MS23) was “markedly shortened”, the APD90 ([4]; ventricular cells, 10 μM, before drug 287.9±10.3 msec, P<0.05, n=4) was 327.8 ± 17.4 ms and the APD90 ([5]; atrial cells, 10 μM, before drug 153.9±12.1 msec, P<0.05, n=4) was 135.5 ± 12.3 ms.

With `COc1ccc(C2CNC(=O)C2)cc1OC1CCCC1` (stereo not shown) [rolipram, reference compound] the APD90 ([4]; ventricular cells, 30 μM, before drug 318.3±8.9 msec, P<0.05, n=3) was 274.6 ± 9.8 ms and the “effect on action potential phases” value ([5]; atrial cells, 30 μM) was “small delay of phase 1 and plateau phase, but acceleration of phase 3 repolarization”.
